The text below walks through data of BindingDB's records for patent US20230348424 (Schrödinger, 2023).

pIC50, pKd: −log10 of the molar value.

The target of assay [1] is T1, Son of sevenless homolog 1 [564-1049] (Human, UniProt Q07889).
T1 construct: 564-1049
T1 sequence (Q07889 whole entry): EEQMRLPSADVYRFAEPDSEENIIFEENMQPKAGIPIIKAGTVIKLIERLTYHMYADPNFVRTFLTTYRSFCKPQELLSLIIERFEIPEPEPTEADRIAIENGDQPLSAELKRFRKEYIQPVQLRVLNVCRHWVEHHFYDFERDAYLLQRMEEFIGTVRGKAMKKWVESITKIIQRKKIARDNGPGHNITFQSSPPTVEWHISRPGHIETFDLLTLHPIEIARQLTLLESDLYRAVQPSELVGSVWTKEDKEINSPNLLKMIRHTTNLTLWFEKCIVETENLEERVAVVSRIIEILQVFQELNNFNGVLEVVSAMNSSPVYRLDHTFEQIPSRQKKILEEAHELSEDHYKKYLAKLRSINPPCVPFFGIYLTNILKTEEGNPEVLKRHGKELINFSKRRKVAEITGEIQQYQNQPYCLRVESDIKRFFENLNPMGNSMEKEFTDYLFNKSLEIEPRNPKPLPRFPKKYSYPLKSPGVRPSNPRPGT
Kind of assay: Surface Plasmon Resonance (SPR) SOS1 Binding AssaySurface Plasmon Resonance (SPR) SOS1 Binding Assay. How it is done:
Binding to SOS1 was measured using a SPR assay with purified recombinant human SOS1 substrate (res. 564-1049 with N-terminal Avi tag; purified and biotinylated based on Hillig, et al., Proc Natl Acad Sci USA (2019); 116(7):2551-2560). SPR measurements were performed on a Biacore 8K SPR instrument (GE Healthcare, Sweden). Assays were performed at 25° C. using Series S SA sensor chips pre-coated with streptavidin (GE Healthcare, Cat. BR100531). Biotinylated SOS1 diluted in sample buffer (20 mM Tris HCI, 150 mM NaCl, 1 mM DTT, 0.05% TWEEN 20, 1 mM MgCh, pH 8.0) was captured to one flow cell of the chip to about 3,000 resonance units (RU) using sample buffer supplemented with 5% DMSO as a running buffer. Serial dilutions of the assayed compounds in the running buffer at 100, 50 or 0.5 µM were injected for 60 s at a flow rate of 30 µL/min and association phases were recorded. Dissociation of the samples was monitored for 600 s. Data processing was performed using Biacore Insight Software (Biacore, GE Healthcare). Sensorgrams recorded on a SA flow cell without captured protein were subtracted from sensorgrams recorded on the SOS1 surface. Blank injections of running buffer were used for double referencing and solvent correction was applied to all sample sensorgrams to correct for buffer mismatches. KDS were estimated using a kinetic or steady state, where applicable, fitting model describing a reversible equilibrium with 1:1 binding between SOS1 and the compound.

Assay [2] concerns the target T2, Son of sevenless homolog 1 [564-1049]/GTPase KRas [G12C] (UniProt Q07889).
T2 construct: 564-1049
The assay can be described thus: SOS1 KRas(G12C) FRET Assay. How it is done:
A 2x KRAS working solution was prepared in an assay buffer containing 5 nM GST-KRAS G12C and 2 nM anti-GST-Eu(K) (Cisbio, Cat. 61GSTKLA) and pre-incubated for 15 minutes at 25° C. […] The final DMSO concentration is 0.5%. […] FRET signal was converted to percentage of protein-protein interaction using the following equation:%Inhibition=100%-C-N/P-N*100%C: signal with compound treatmentP: signal for positive control (DMSO)N: signal for negative control (no SOS1 added).

T2 sequence (P01116 whole entry G12C, one chain of several): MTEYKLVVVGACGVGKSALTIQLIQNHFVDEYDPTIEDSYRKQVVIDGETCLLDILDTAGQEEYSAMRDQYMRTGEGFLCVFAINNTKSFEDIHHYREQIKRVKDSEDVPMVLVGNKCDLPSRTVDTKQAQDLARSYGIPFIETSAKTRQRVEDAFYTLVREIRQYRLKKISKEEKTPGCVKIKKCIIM

As to `Cc1c([C@@H](C)NC(=O)c2cn(C3CCOCC3)c(=O)cc2NC2CCN(C)CC2)cccc1C(F)(F)F` [US20230348424, Example 1], the negative logarithm of the Kd (pKd) in assay [1] is 8.22.

In turn, `C[C@@H](NC(=O)c1cn(C23CC(C2)C3)c(=O)cc1N[C@H]1[C@@H]2CNC[C@@H]21)c1cccc(C(F)F)c1F` [US20230348424, Example 89] showed a negative logarithm of the Kd (pKd) in assay [1] of 7.92.

In assay [1], `C[C@@H](NC(=O)c1cn(C2(C(F)(F)F)CC2)c(=O)cc1N[C@H]1[C@@H]2CN(C)C[C@@H]21)c1cccc(C(F)(F)F)c1F` [US20230348424, Example 120] gave a pKd of 7.62. Also, the negative logarithm of the IC50 (pIC50) in assay [2] was 7.45.
